Assay results published in patent US20250115578A1, “AROMATIC FUSED RING NAV1.8 INHIBITOR, AND USE THEREOF” (CHENGDU KANGHONG PHARMACEUTICAL CO., LTD., priority 2022, published 2025).

What was measured:
[1] = Stability assay for human liver microsomes in vitro; type: in vitro ADME; details: 1 μM compound, 0.5 mg/mL liver microsomes, read-out: Human liver microsome stability T1/2
Description: • Human liver microsomes, purchased from Corning or Xenotech, stored in a −80° C. refrigerator. • Nicotinamide adenine dinucleotide phosphate (NADPH), Chem-impex international, 00616 • Control compounds: testosterone, diclofenac, propafenone
• Water bath (HH-60, Guohua, Changzhou, China) • Pipette workstation (PP-550DS, Apricot, Covina, USA) • Centrifuge (5810R, Eppendorf, Hamburg, Germany) • Mass Spectrometer (Sciex API 4000, Singapore) • High Performance Liquid Chromatography (LC 20-AD, Shimadzu, Kyoto, Japan) • Sampler (ADDA, Apricot Designs, California, USA)
• Stock solution: 10 mM in DMSO • Working solution concentration preparation: 10 mM stock solution was diluted to 100 μM with 100% acetonitrile (organic phase content: 99% ACN, 1% DMSO)
Two 96-well incubation plates were named T60 incubation plate and NCF60 incubation plate.
445 μL microsomal working solution (liver microsomal protein concentration: 0.56 mg/mL) was added to the T60 and NCF60 incubation plates respectively, then the incubation plates above were placed in a water bath at 37° C. for pre-incubation approximately 10 minutes.
After the pre-incubation finished, 5 μL of the test compound working solution was added to the T60 and NCF60 incubation plates respectively, and mixed well. 50 μL potassium phosphate buffer was added to each well on the NCF60 incubation plate to start the reaction. 180 μL termination solution (acetonitrile solution containing 200 ng/mL tolbutamide and 200 ng/mL labetalol) and 6 uL working solution of NADPH regeneration system were added to the TO termination plate, and 54 μL samples were removed from the T60 incubation plate to the TO termination plate (TO sample generated). The reaction was initiated by adding 44 μL of NADPH regenerating system working solution per well on the T60 incubation plate. Only 54 μL microsomal working solution, 6 uL NADPH regeneration system working solution, and 180 μL termination solution were added to the Blank plate. Therefore, in the samples of the test or control compounds, the final reaction concentration of the compounds, testosterone, diclofenac and propafenone was 1 μM, the concentration of the liver microsomes was 0.5 mg/mL, and the final concentration of DMSO and acetonitrile in the reaction system was 0.01% (v/v) and 0.99% (v/v), respectively.
After incubation for an appropriate time (e.g. 5, 10, 20, 30, and 60 minutes), 180 μL of termination solution (acetonitrile solution containing 200 ng/mL tolbutamide and 200 ng/mL labetalol) was added to the sample hole of each termination plate, respectively. After that, 60 μL sample was removed from the T60 incubation plate to terminate the reaction.
All sample plates were shaken evenly and centrifuged at 3220×g for 20 min. Then 80 μL supernatant was taken from each well and diluted to 240 μL pure water for LC-MS/MS analysis.
All samples were injected for analysis.

Human Nav1.8 ion channel = Human Nav1.8 ion channel (Homo sapiens (Human), UniProt Q9Y5Y9); test: Manual patch clamp, Method 2 (HEK293 cells stably expressing human Nav1.8, resting state); type: cell-based; details: Method 2, HEK293-hNav1.8, resting state, 1 μM TTX; read-out: IC50 inhibitory activity against hNav1.8
hNav1.8 = hNav1.8 (Homo sapiens (Human), UniProt Q9Y5Y9); test: Manual patch clamp, Method 1 (CHO cell line stably expressing hNav1.8); type: cell-based; details: for inhibition at 0.01 µM: 10 nM; for inhibition at 0.01 µM / inhibition at 0.1 µM: Method 1, CHO-hNav1.8, read-out: Inhibition rate of hNav1.8; for inhibition at 0.1 µM: 100 nM; for IC50: Method 1, CHO-hNav1.8, manual patch clamp, resting state, read-out: IC50 inhibitory activity against hNav1.8
Sequence of hNav1.8 (Q9Y5Y9 whole entry): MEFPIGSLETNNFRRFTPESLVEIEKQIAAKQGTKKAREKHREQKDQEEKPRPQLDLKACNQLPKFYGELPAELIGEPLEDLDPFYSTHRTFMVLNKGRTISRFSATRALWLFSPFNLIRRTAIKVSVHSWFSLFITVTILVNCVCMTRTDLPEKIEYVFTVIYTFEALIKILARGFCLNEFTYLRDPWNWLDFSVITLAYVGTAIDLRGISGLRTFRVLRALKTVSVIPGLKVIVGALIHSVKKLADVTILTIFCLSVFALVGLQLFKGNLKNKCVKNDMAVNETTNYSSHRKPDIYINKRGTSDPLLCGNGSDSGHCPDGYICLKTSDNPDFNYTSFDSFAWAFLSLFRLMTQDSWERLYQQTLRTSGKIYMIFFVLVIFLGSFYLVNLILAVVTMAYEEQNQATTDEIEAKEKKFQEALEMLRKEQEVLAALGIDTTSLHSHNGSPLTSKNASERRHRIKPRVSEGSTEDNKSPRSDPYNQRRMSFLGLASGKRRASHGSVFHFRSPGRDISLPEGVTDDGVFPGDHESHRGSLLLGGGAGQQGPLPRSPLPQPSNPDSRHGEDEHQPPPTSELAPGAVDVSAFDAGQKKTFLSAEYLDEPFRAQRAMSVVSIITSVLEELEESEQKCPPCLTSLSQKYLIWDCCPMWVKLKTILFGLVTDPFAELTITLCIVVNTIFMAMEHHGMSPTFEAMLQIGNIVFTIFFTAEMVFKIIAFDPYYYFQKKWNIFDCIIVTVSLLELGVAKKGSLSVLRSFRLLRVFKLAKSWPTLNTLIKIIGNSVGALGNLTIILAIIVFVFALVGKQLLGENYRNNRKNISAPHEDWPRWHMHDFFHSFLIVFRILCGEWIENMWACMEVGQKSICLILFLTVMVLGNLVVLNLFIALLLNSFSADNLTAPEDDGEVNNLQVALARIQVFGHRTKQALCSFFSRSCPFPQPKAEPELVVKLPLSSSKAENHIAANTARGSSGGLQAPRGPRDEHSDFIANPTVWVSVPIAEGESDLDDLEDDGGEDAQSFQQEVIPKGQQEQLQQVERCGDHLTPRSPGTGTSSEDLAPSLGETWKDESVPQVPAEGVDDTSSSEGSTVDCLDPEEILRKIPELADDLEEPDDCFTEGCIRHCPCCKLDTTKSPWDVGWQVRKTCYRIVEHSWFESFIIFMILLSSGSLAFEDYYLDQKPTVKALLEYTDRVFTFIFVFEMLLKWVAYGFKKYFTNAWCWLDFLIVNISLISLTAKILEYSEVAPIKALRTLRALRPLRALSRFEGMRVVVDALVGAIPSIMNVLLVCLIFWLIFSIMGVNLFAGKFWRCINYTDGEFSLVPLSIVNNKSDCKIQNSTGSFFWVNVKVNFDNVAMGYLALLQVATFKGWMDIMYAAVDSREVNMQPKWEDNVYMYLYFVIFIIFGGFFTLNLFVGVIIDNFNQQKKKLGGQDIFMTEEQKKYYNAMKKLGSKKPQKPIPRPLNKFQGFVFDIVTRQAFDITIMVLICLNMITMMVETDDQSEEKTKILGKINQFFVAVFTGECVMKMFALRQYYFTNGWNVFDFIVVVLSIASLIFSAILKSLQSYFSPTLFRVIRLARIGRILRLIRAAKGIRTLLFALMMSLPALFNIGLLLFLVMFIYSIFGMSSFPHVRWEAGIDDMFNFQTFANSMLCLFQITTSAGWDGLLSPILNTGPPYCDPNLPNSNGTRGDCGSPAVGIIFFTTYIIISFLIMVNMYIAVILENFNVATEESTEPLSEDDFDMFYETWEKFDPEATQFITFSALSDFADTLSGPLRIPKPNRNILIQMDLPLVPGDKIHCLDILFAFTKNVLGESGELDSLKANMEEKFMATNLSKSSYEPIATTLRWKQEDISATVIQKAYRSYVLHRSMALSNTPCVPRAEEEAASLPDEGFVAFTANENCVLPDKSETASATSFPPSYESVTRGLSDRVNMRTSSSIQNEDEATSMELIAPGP

SMILES	half-life at 1 µM [1] [min]	IC50 (Human Nav1.8 ion channel) [nM]	inhibition at 0.01 µM (hNav1.8) [%]	inhibition at 0.1 µM (hNav1.8) [%]	IC50 (hNav1.8) [nM]
NS(=O)(=O)c1cccc(NC(=O)c2cc3cc(F)c(F)cc3nc2N2CCCC(F)(F)CC2)c1 [Example 16, 2-(4,4-difluoroazepan-1-yl)-6,7-difluoro-N-(3-sulfamoylphenyl) quinoline-3-carboxamide]	41.3	0.071	99.8	100	0.084
NS(=O)(=O)c1cc(NC(=O)c2cc3ccccc3nc2N2CCCC(F)(F)CC2)ccn1 [Example 14, 2-(4,4-difluoroazepan-1-yl)-N-(2-sulfamoylpyridine-4-yl) quinoline-3-carboxamide]	> 145	0.725	98	99.6	0.34
NC(=O)c1cc(NC(=O)c2cc3ccccc3nc2N2CCCC(F)(F)CC2)ccn1 [Example 08, N-(2-carbamoylpyridin-4-yl)-2-(4,4-difluoroazepan-1-yl)quinoline-3-carboxamide]	23	1.74	75.4	96.6	3.3
NC(=O)c1cc(NC(=O)c2nc3ccccc3nc2N2CCCC(F)(F)CC2)ccc1F [Example 02, N-(3-carbamoyl-4-fluorophenyl)-3-(4,4-difluoroazepan-1-yl)quinoxaline-2-carboxamide]	58.8	2.82	66.1	96.1	5.3
NC(=O)c1cc(NC(=O)c2cc3cc(F)c(F)cc3nc2N2CCCC(F)(F)CC2)ccn1 [Example 10, N-(2-carbamoylpyridin-4-yl)-2-(4,4-difluoroazepan-1-yl)-6,7-difluoroquinoline-3-carboxamide]	92.7	0.46	95.5	99.1	0.784
NC(=O)c1cc(NC(=O)c2nc3ccccc3nc2N2CCCC(F)(F)CC2)ccn1 [Example 05, N-(2-carbamoylpyridin-4-yl)-3-(4,4-difluoroazepan-1-yl)quinoxaline-2-carboxamide]	93.7	21.3	46.7	90.5	8.9
